Target: T1, recombinant HIV integrase (Human immunodeficiency virus type 1 group M subtype B, UniProt P04585)
T1 construct: recombinant HIV integrase
Experiment: HIV integrase inhibition assay (microtiter plate, biotin donor DNA / digoxigenin target DNA, colorimetric)
Format: biochemical
Conditions: total inhibitory effect (3′ process reaction and strand transfer reaction); initial concentration 100 μg/mL; class symbol
Description: The target compounds 8, 9, 12, 14 were screened against purified HIV IN to determine any potential inhibitory activity. Thus, a synthesized 30 oligonucleotide and a 20 oligonucleotide were used as donor DNA and target DNA, respectively, which were purchased from Shanghai Sangon Biological Engineering Technology & Services Co. Ltd. The donor DNA was biotinylated at the 5′ end (5′ bio-DNA) and immobilized on streptavidin-coated 96-well microtiter plates. To the donor DNA streptavidin-coated 96-well microtiter plate were added test sample, 3' digoxygenin-labeled target DNA (3' dig-DNA) and recombinant HIV integrase and subjected to incubation in optimized condition.
The plate was further washed with phosphate-buffered saline (PBS) containing 0.1% Tween®-20 and anti-digoxigenin-peroxidase (POD, 100 µL) was added to each well. After incubation at 37°C for 60 min, the plate was washed with PBS containing 0.1% Tween®-20. The digoxygenin-labeled products were visualized by adding a POD substrate, tetramethylbenzidine (TMB). The colorimetric reaction was stopped by addition of 0.5 mol/L H2SO4 (100 µL), and the absorbance was measured at 450 nm on a microplate reader. The total inhibitory effect (including inhibiting 3′ process reaction and strand transfer reaction) were obtained by comparing the absorbance of drug group with control group (without test compound).

Q: Which “IC50 (μg/mL)” value does the source give for “1-(3,4-Dimethoxystyrylcarboxylamino)-4-oxo-4H-quinolizine-3-carboxylic acid [9b]” here?
A: Its value is “-^2 (“-” indicates that the HIV-IN inhibitory effect was less than 50% at the initial concentration)”.

Same assay, conditions: total inhibitory effect (3′ process reaction and strand transfer reaction); initial concentration 100 μg/mL; class symbol; read-out: IC50 (μg/mL)

Q: Which inhibition at 100 µg/mL does the source give for `O=C(O)c1cc(NS(=O)(=O)c2ccccc2)c2ccccn2c1=O` [8a, 1-Phenylsulfonamido-4-oxo-4H-quinolizine-3-carboxylic acid] here?
A: The inhibition at 100 µg/mL was less than 50%.

Q: With `Cc1ccc(S(=O)(=O)Nc2cc(C(=O)O)c(=O)n3ccccc23)cc1` [8b, 1-p-Methylphenylsulfonamido-4-oxo-4H-quinolizine-3-carboxylic acid] as the compound, how does the inhibition at 100 µg/mL read?
A: The inhibition at 100 µg/mL was less than 50%.

Q: Which inhibition at 100 µg/mL does the source give for `O=C(O)c1cc(NS(=O)(=O)c2ccc(Cl)cc2)c2ccccn2c1=O` [8c, 1-p-Chlorophenylsulfonamido-4-oxo-4H-quinolizine-3-carboxylic acid] here?
A: The inhibition at 100 µg/mL was less than 50%.

Q: For `COc1ccc(S(=O)(=O)Nc2cc(C(=O)O)c(=O)n3ccccc23)cc1` [8d, 1-p-Methoxyphenylsulfonamido-4-oxo-4H-quinolizine-3-carboxylic acid], which inhibition at 100 µg/mL is on record?
A: Its inhibition at 100 µg/mL is less than 50%.

Q: With `O=C(O)c1cc(NS(=O)(=O)c2ccc([N+](=O)[O-])cc2)c2ccccn2c1=O` [8e, 1-p-Nitrophenylsulfonamido-4-oxo-4H-quinolizine-3-carboxylic acid] as the compound, how does the inhibition at 100 µg/mL read?
A: The inhibition at 100 µg/mL was less than 50%.

Q: Which inhibition at 100 µg/mL does the source give for `COc1cc(C(=O)Nc2cc(C(=O)O)c(=O)n3ccccc23)cc(OC)c1OC` [9a, 1-(3,4,5-Trimethoxyphenylcarbonylamino)-4-oxo-4H-quinolizine-3-carboxylic acid] here?
A: Its inhibition at 100 µg/mL is less than 50%.

Q: For `O=C(O)c1cc(-c2nc3ccccc3[nH]2)c2ccccn2c1=O` [14a, 1-(1H-Benzimidazol-2-yl)-4-oxo-4H-quinolizine-3-carboxylic acid], which inhibition at 100 µg/mL is on record?
A: Its inhibition at 100 µg/mL is less than 50%.

Q: With `O=C(O)c1cc(-c2nc3cc(Cl)ccc3[nH]2)c2ccccn2c1=O` [14b, 1-(5(6)-Chloro-1H-benzimidazol-2-yl)-4-oxo-4H-quinolizine-3-carboxylic acid] as the compound, how does the inhibition at 100 µg/mL read?
A: The inhibition at 100 µg/mL was less than 50%.

Q: Which inhibition at 100 µg/mL does the source give for `COc1ccc2[nH]c(-c3cc(C(=O)O)c(=O)n4ccccc34)nc2c1` [14c, 1-(5(6)-Methoxy-1H-benzimidazol-2-yl)-4-oxo-4H-quinolizine-3-carboxylic acid] here?
A: The inhibition at 100 µg/mL was less than 50%.

Q: With `O=C(O)c1cc(-c2nc3ccccc3s2)c2ccccn2c1=O` [compound 12, 1-benzothiazol-2-yl-4-oxo-4H-quinolizine-3-carboxylic acid] as the compound, how does the inhibition at 100 µg/mL read?
A: The inhibition at 100 µg/mL was less than 50%.

Test system: not listed separately
Experiment: Mg2+ binding by UV-Vis titration in CH3CN
Format: physicochemical
Conditions: 100-fold equivalent amount of Na+ or K+
Procedure: Inspirited by this assumption, preliminary ion binding experiments were also carried out by UV-Vis spectroscopy, using compound 14a as an example. […] As the Mg^2+ concentration (as perchlorate salt) increased, the absorption intensity of the peak at 414 nm first decreased and then the wavelength shifted blue to around 402 nm. […] However, the Mg^2+ induced a blue shift of the absorption curve of compound 14a. Similar behaviors were also observed for other divalent metals, including Mn^2+, Co^2+, Cu^2+, Ca^2+ and Ni^2+ (not shown in Figure 3).
Figure 2 Changes of UV-vis spectra with 14a in CH3CN on addition of 0-16×10^-6 mol·L^-1 of [Mg^2+] at 25 °C. Conditions: [Mg^2+] =2 × 10^-3 M. [14a] = 2 × 10^-5 MBlack: 0×10^-6 mol·L^-1, blue: 2×10^-6 mol·L^-1, red: 4×10^-6 mol·L^-1, navy: 6×10^-6 mol·L^-1, brown: 8×10^-6 mol·L^-1, green: 10×10^-6 mol·L^-1, dark cyan: 12×10^-6 mol·L^-1, brass: 16×10^-6 mol.L^-1.
Figure 3 UV-Vis absorption spectra of free 14a and 14a in the presence of K^+, Na^+ or Mg^2+ ion in CH3CN solution. Conditions: [14a] = 2 × 10^-5 M; [Mg^2+] = [K^+] = [Na^+] = 2×10^-3 M; Black: 14a, blue: Na^+ complex, red: K^+ complex, navy: Mg^2+ complex.

Q: For `O=C(O)c1cc(-c2nc3ccccc3[nH]2)c2ccccn2c1=O` [14a, 1-(1H-Benzimidazol-2-yl)-4-oxo-4H-quinolizine-3-carboxylic acid], which “change of UV-Vis absorption in the presence of Na+ or K+” value is on record?
A: Its value is “no obvious change”.

Same assay, conditions: [14a] = 2 × 10^-5 M

Q: For `O=C(O)c1cc(-c2nc3ccccc3[nH]2)c2ccccn2c1=O` [14a, 1-(1H-Benzimidazol-2-yl)-4-oxo-4H-quinolizine-3-carboxylic acid], which “change of UV-Vis absorption curve upon addition of Mg2+” value is on record?
A: The value was “two-step shift of the absorption curve”.

Test system: not listed separately
Experiment: Solubility in water (qualitative remark)
Format: physicochemical
Conditions: not given

Q: Which solubility in water does the source give for `O=C(O)c1cc(-c2nc3ccccc3[nH]2)c2ccccn2c1=O` [14a, 1-(1H-Benzimidazol-2-yl)-4-oxo-4H-quinolizine-3-carboxylic acid] here?
A: Its solubility in water is “low solubility”.

Test system: not given
Experiment: not given
Conditions: not given

Q: Which melting point does the source give for `O=C(O)c1cc(NS(=O)(=O)c2ccccc2)c2ccccn2c1=O` [8a, 1-Phenylsulfonamido-4-oxo-4H-quinolizine-3-carboxylic acid] here?
A: Its melting point is 245 to 247 °C.

Q: Which melting point does the source give for `Cc1ccc(S(=O)(=O)Nc2cc(C(=O)O)c(=O)n3ccccc23)cc1` [8b, 1-p-Methylphenylsulfonamido-4-oxo-4H-quinolizine-3-carboxylic acid] here?
A: Its melting point is greater than 300 °C.

Q: Which melting point does the source give for `O=C(O)c1cc(NS(=O)(=O)c2ccc(Cl)cc2)c2ccccn2c1=O` [8c, 1-p-Chlorophenylsulfonamido-4-oxo-4H-quinolizine-3-carboxylic acid] here?
A: Its melting point is greater than 300 °C.

Q: Which melting point does the source give for `COc1ccc(S(=O)(=O)Nc2cc(C(=O)O)c(=O)n3ccccc23)cc1` [8d, 1-p-Methoxyphenylsulfonamido-4-oxo-4H-quinolizine-3-carboxylic acid] here?
A: Its melting point is greater than 300 °C.

Q: For `O=C(O)c1cc(NS(=O)(=O)c2ccc([N+](=O)[O-])cc2)c2ccccn2c1=O` [8e, 1-p-Nitrophenylsulfonamido-4-oxo-4H-quinolizine-3-carboxylic acid], which melting point is on record?
A: The melting point was greater than 300 °C.

Q: Which melting point does the source give for `COc1cc(C(=O)Nc2cc(C(=O)O)c(=O)n3ccccc23)cc(OC)c1OC` [9a, 1-(3,4,5-Trimethoxyphenylcarbonylamino)-4-oxo-4H-quinolizine-3-carboxylic acid] here?
A: Its melting point is 280 to 282 °C.

Q: For `O=C(O)c1cc(-c2nc3ccccc3[nH]2)c2ccccn2c1=O` [14a, 1-(1H-Benzimidazol-2-yl)-4-oxo-4H-quinolizine-3-carboxylic acid], which melting point is on record?
A: The melting point was greater than 300 °C.

Q: With `O=C(O)c1cc(-c2nc3cc(Cl)ccc3[nH]2)c2ccccn2c1=O` [14b, 1-(5(6)-Chloro-1H-benzimidazol-2-yl)-4-oxo-4H-quinolizine-3-carboxylic acid] as the compound, how does the melting point read?
A: The melting point was greater than 300 °C.

Q: For `COc1ccc2[nH]c(-c3cc(C(=O)O)c(=O)n4ccccc34)nc2c1` [14c, 1-(5(6)-Methoxy-1H-benzimidazol-2-yl)-4-oxo-4H-quinolizine-3-carboxylic acid], which melting point is on record?
A: The melting point was greater than 300 °C.

Q: For `O=C(O)c1cc(-c2nc3ccccc3s2)c2ccccn2c1=O` [compound 12, 1-benzothiazol-2-yl-4-oxo-4H-quinolizine-3-carboxylic acid], which melting point is on record?
A: The melting point was greater than 300 °C.

Reference: paper PMC6254011, “Design, Synthesis and Anti-HIV Integrase Evaluation of 4-Oxo-4H-quinolizine-3-carboxylic Acid Derivatives” (Molecules, 2009)
